From ChEMBL document CHEMBL1155926, “Parallel synthesis and antileishmanial activity of ether-linked phospholipids” (Bioorg Med Chem Lett, 2008) come the findings set out here.

The first experiment has as its system Leishmania donovani. Nature of the experiment: Antileishmanial activity against Leishmania donovani axenic amastigotes after 72 hrs by serial dilution method. The format is functional, organism-based.
The term IC50 denotes the concentration that gives 50% inhibition. `C[N+](C)(C)CCOP(=O)([O-])OCC(COCc1ccccc1)OCc1ccccc1` (stereo unspecified) registered an IC50 of 4.15 µM.
Same read-out and setting: under `C[N+](C)(C)CCOP(=O)([O-])OCC(COCc1ccccc1)OCc1cccc2ccccc12` (stereo unspecified) stands 13.8 µM; under `C[N+](C)(C)CCOP(=O)([O-])OCC(COCc1ccccc1)Oc1ccccc1` (stereo unspecified), over 50 µM; under `C[N+](C)(C)CCOP(=O)([O-])OCC(COCn1nnc2ccccc21)OCc1cccc2ccccc12` (stereo unspecified), 33.1 µM.
The same measure, in the same setting: under `Cc1noc(C)c1COCC(COP(=O)([O-])OCC[N+](C)(C)C)OCc1cccc2ccccc12` (stereo unspecified) stands over 50 µM; under `CCCCCCCCCCCCCCCCCCOC(COCc1ccccc1)COP(=O)([O-])OCC[N+](C)(C)C` (stereo unspecified), 1.6 µM.
The same measure, in the same setting: under `C=CCOCC(COP(=O)([O-])OCC[N+](C)(C)C)OCCCCCCCCCCCCCCCCCC` (stereo unspecified) stands 6.75 µM; under `CCCCCCCCCCCCCCCCCCOC(COCn1nnc2ccccc21)COP(=O)([O-])OCC[N+](C)(C)C` (stereo unspecified), 0.66 µM; under `CCCCCCCCCCCCCCCCOP(=O)([O-])OCC[N+](C)(C)C` [MILTEFOSINE], 0.22 µM.
Compound `C=CCOCC(COP(=O)([O-])OCC[N+](C)(C)C)OCc1cccc2ccccc12` (stereo unspecified) came in with an IC50 of 26.7 µM. This IC50 is about 120-fold higher than that of the compound before.
The compound `Cc1noc(C)c1COCC(COP(=O)([O-])OCC[N+](C)(C)C)Oc1ccccc1` (stereo unspecified) returned an IC50 of over 50 µM.
The compound `C=CCOCC(COP(=O)([O-])OCC[N+](C)(C)C)OCCCC` (stereo unspecified) displayed an IC50 of 42.5 µM.
The same measure, in the same setting: under `CCCCOC(COCn1nnc2ccccc21)COP(=O)([O-])OCC[N+](C)(C)C` (stereo unspecified) stands over 50 µM.
In the case of `CCCCCCCCCCCCCCCCCCOC(COCc1c(C)noc1C)COP(=O)([O-])OCC[N+](C)(C)C` (stereo unspecified), half-maximal inhibition (IC50) was put at 1.3 µM.
The compound `CCCCOC(COCc1ccccc1)COP(=O)([O-])OCC[N+](C)(C)C` (stereo unspecified) displayed an IC50 of over 50 µM.
Still for that read-out and setting: under `C[N+](C)(C)CCOP(=O)([O-])OCC(COCn1nnc2ccccc21)OCc1ccccc1` (stereo unspecified) stands over 50 µM; under `CCCCOC(COCc1c(C)noc1C)COP(=O)([O-])OCC[N+](C)(C)C` (stereo unspecified), over 50 µM; under `C[N+](C)(C)CCOP(=O)([O-])OCC(COCn1nnc2ccccc21)Oc1ccccc1` (stereo unspecified), 28.2 µM.
On the same count and under the same terms, under `Cc1noc(C)c1COCC(COP(=O)([O-])OCC[N+](C)(C)C)OCc1ccccc1` (stereo unspecified) stands over 50 µM.

The test system of the next experiment is Leishmania donovani. Briefly: Antileishmanial activity against Leishmania donovani infected macrophage. The format is functional, organism-based.
For the compound `CCCCCCCCCCCCCCCCCCOC(COCn1nnc2ccccc21)COP(=O)([O-])OCC[N+](C)(C)C` (stereo unspecified), half-maximal inhibition (IC50) was put at 0.78 µM.
In the case of `CCCCCCCCCCCCCCCCOP(=O)([O-])OCC[N+](C)(C)C` [MILTEFOSINE], the IC50 amounted to 1.74 µM.
